# Results as given in ChEMBL document CHEMBL3045481, “Insecticide-induced resurgence of the whitebacked planthopper Sogatella furcifera (Horvath) (Hemiptera: Delphacidae) on rice varieties with different levels of resistance” (Crop Prot, 2011).
# Assays:
# Assay type in all cases: ADME, organism-based
# Settings in all cases: in vivo
# Oryza sativa [1] = assay: Effect on total sugar level in Sogatella furcifera-resistanct Oryza sativa (rice) plant PR116 leaf sheath measured per gram of dry weight at 0.0018% concentration (reference value: 30.27 mg/g dry wt)
# Oryza sativa [2] = assay: Effect on total sugar level in Sogatella furcifera-resistanct Oryza sativa (rice) plant PR116 leaf sheath measured per gram of dry weight at 0.0035% concentration (reference value: 30.27 mg/g dry wt)
# Oryza sativa [3] = assay: Effect on total phenols level in Sogatella furcifera-resistanct Oryza sativa (rice) plant PR116 leaf sheath measured per gram of dry weight at 0.0018% concentration (reference value: 5.75 mg/g dry wt)
# Oryza sativa [4] = assay: Effect on total phenols level in Sogatella furcifera-resistanct Oryza sativa (rice) plant PR116 leaf sheath measured per gram of dry weight at 0.0035% concentration (reference value: 5.75 mg/g dry wt)
# Oryza sativa [5] = assay: Effect on total amino acids level in Sogatella furcifera-resistanct Oryza sativa (rice) plant PR116 leaf blade measured per gram of dry weight at 0.0018% concentration (reference value: 3.91 mg/g […])
# Oryza sativa [6] = assay: Effect on total amino acids level in Sogatella furcifera-resistanct Oryza sativa (rice) plant PR116 leaf blade measured per gram of dry weight at 0.0035% concentration (reference value: 3.91 mg/g […])
# Oryza sativa [7] = assay: Effect on total amino acids level in Sogatella furcifera-sensitive Oryza sativa (rice) plant ARC6248 leaf sheath measured per gram of dry weight at 0.0018% concentration (reference value: 2.11 mg/g fresh wt)
# Oryza sativa [8] = assay: Effect on total amino acids level in Sogatella furcifera-sensitive Oryza sativa (rice) plant ARC6248 leaf sheath measured per gram of dry weight at 0.0035% concentration (reference value: 2.11 mg/g fresh wt)
# Oryza sativa [9] = assay: Effect on total amino acids level in Sogatella furcifera-sensitive Oryza sativa (rice) plant ARC6248 leaf blade measured per gram of dry weight at 0.0018% concentration (reference value: 3.54 mg/g fresh wt)
# Oryza sativa [10] = assay: Effect on total amino acids level in Sogatella furcifera-sensitive Oryza sativa (rice) plant ARC6248 leaf blade measured per gram of dry weight at 0.0035% concentration (reference value: 3.54 mg/g fresh wt)
# Oryza sativa [11] = assay: Effect on total protein level in Sogatella furcifera-sensitive Oryza sativa (rice) plant ARC6248 leaf blade measured per gram of dry weight at 0.0018% concentration (reference value: 17.67 mg/g fresh wt)
# Oryza sativa [12] = assay: Effect on total protein level in Sogatella furcifera-sensitive Oryza sativa (rice) plant ARC6248 leaf blade measured per gram of dry weight at 0.0035% concentration (reference value: 17.67 mg/g fresh wt)
# Oryza sativa [13] = assay: Effect on total protein level in Sogatella furcifera-resistanct Oryza sativa (rice) plant PR116 leaf blade measured per gram of dry weight at 0.0018% concentration (reference value: 21.67 mg/g fresh wt)
# Oryza sativa [14] = assay: Effect on total protein level in Sogatella furcifera-resistanct Oryza sativa (rice) plant PR116 leaf blade measured per gram of dry weight at 0.0035% concentration (reference value: 21.67 mg/g fresh wt)
# Oryza sativa [15] = assay: Effect on reducing sugar level in Sogatella furcifera-sensitive Oryza sativa (rice) plant ARC6248 leaf blade measured per gram of dry weight at 0.0018% concentration (reference value: 8.37 mg/g dry wt)
# Oryza sativa [16] = assay: Effect on reducing sugar level in Sogatella furcifera-sensitive Oryza sativa (rice) plant ARC6248 leaf blade measured per gram of dry weight at 0.0035% concentration (reference value: 8.37 mg/g dry wt)
# Oryza sativa [17] = assay: Effect on total amino acids level in Sogatella furcifera-resistanct Oryza sativa (rice) plant PR116 leaf sheath measured per gram of dry weight at 0.0018% concentration (reference value: 2.58 mg/g […])
# Oryza sativa [18] = assay: Effect on total amino acids level in Sogatella furcifera-resistanct Oryza sativa (rice) plant PR116 leaf sheath measured per gram of dry weight at 0.0035% concentration (reference value: 2.58 mg/g […])
# Oryza sativa [19] = assay: Effect on total phenols level in Sogatella furcifera-sensitive Oryza sativa (rice) plant ARC6248 leaf blade measured per gram of dry weight at 0.0018% concentration (reference value: 17.08 mg/g dry wt)
# Oryza sativa [20] = assay: Effect on total phenols level in Sogatella furcifera-sensitive Oryza sativa (rice) plant ARC6248 leaf blade measured per gram of dry weight at 0.0035% concentration (reference value: 17.08 mg/g dry wt)
# Oryza sativa [21] = assay: Effect on total phenols level in Sogatella furcifera-resistanct Oryza sativa (rice) plant PR116 leaf blade measured per gram of dry weight at 0.0018% concentration (reference value: 8.08 mg/g dry wt)
# Oryza sativa [22] = assay: Effect on total phenols level in Sogatella furcifera-resistanct Oryza sativa (rice) plant PR116 leaf blade measured per gram of dry weight at 0.0035% concentration (reference value: 8.08 mg/g dry wt)
# Oryza sativa [23] = assay: Effect on reducing sugar level in Sogatella furcifera-resistanct Oryza sativa (rice) plant PR116 leaf blade measured per gram of dry weight at 0.0018% concentration (reference value: 9.35 mg/g dry wt)
# Oryza sativa [24] = assay: Effect on reducing sugar level in Sogatella furcifera-resistanct Oryza sativa (rice) plant PR116 leaf blade measured per gram of dry weight at 0.0035% concentration (reference value: 9.35 mg/g dry wt)
# Oryza sativa [25] = assay: Effect on total sugar level in Sogatella furcifera-sensitive Oryza sativa (rice) plant ARC6248 leaf blade measured per gram of dry weight at 0.0018% concentration (reference value: 34.05 mg/g dry wt)
# Oryza sativa [26] = assay: Effect on total sugar level in Sogatella furcifera-sensitive Oryza sativa (rice) plant ARC6248 leaf blade measured per gram of dry weight at 0.0035% concentration (reference value: 34.05 mg/g dry wt)
# Oryza sativa [27] = assay: Effect on total sugar level in Sogatella furcifera-resistanct Oryza sativa (rice) plant PR116 leaf blade measured per gram of dry weight at 0.0018% concentration (reference value: 36.16 mg/g dry wt)
# Oryza sativa [28] = assay: Effect on total sugar level in Sogatella furcifera-resistanct Oryza sativa (rice) plant PR116 leaf blade measured per gram of dry weight at 0.0035% concentration (reference value: 36.16 mg/g dry wt)
# Oryza sativa [29] = assay: Effect on total protein level in Sogatella furcifera-sensitive Oryza sativa (rice) plant ARC6248 leaf sheath measured per gram of dry weight at 0.0018% concentration (reference value: 6.11 mg/g […])
# Oryza sativa [30] = assay: Effect on total protein level in Sogatella furcifera-sensitive Oryza sativa (rice) plant ARC6248 leaf sheath measured per gram of dry weight at 0.0035% concentration (reference value: 6.11 mg/g […])
# Oryza sativa [31] = assay: Effect on total protein level in Sogatella furcifera-resistanct Oryza sativa (rice) plant PR116 leaf sheath measured per gram of dry weight at 0.0018% concentration (reference value: 7.06 mg/g fresh wt)
# Oryza sativa [32] = assay: Effect on total protein level in Sogatella furcifera-resistanct Oryza sativa (rice) plant PR116 leaf sheath measured per gram of dry weight at 0.0035% concentration (reference value: 7.06 mg/g fresh wt)
# Oryza sativa [33] = assay: Effect on total phenols level in Sogatella furcifera-sensitive Oryza sativa (rice) plant ARC6248 leaf sheath measured per gram of dry weight at 0.0018% concentration (reference value: 12.75 mg/g dry wt)
# Oryza sativa [34] = assay: Effect on total phenols level in Sogatella furcifera-sensitive Oryza sativa (rice) plant ARC6248 leaf sheath measured per gram of dry weight at 0.0035% concentration (reference value: 12.75 mg/g dry wt)
# Oryza sativa [35] = assay: Effect on reducing sugar level in Sogatella furcifera-sensitive Oryza sativa (rice) plant ARC6248 leaf sheath measured per gram of dry weight at 0.0018% concentration (reference value: 6.41 mg/g dry wt)
# Oryza sativa [36] = assay: Effect on reducing sugar level in Sogatella furcifera-sensitive Oryza sativa (rice) plant ARC6248 leaf sheath measured per gram of dry weight at 0.0035% concentration (reference value: 6.41 mg/g dry wt)
# Oryza sativa [37] = assay: Effect on reducing sugar level in Sogatella furcifera-resistanct Oryza sativa (rice) plant PR116 leaf sheath measured per gram of dry weight at 0.0018% concentration (reference value: 7.50 mg/g dry wt)
# Oryza sativa [38] = assay: Effect on reducing sugar level in Sogatella furcifera-resistanct Oryza sativa (rice) plant PR116 leaf sheath measured per gram of dry weight at 0.0035% concentration (reference value: 7.50 mg/g dry wt)
# Oryza sativa [39] = assay: Effect on total sugar level in Sogatella furcifera-sensitive Oryza sativa (rice) plant ARC6248 leaf sheath measured per gram of dry weight at 0.0018% concentration (reference value: 25.98 mg/g dry wt)
# Oryza sativa [40] = assay: Effect on total sugar level in Sogatella furcifera-sensitive Oryza sativa (rice) plant ARC6248 leaf sheath measured per gram of dry weight at 0.0035% concentration (reference value: 25.98 mg/g dry wt)
structure (smiles),measurement,setting,value
O=[N+]([O-])NC1=NCCN1Cc1ccc(Cl)nc1 [IMIDACLOPRID],Activity,Oryza sativa [1],31.34 mg
same,Activity,Oryza sativa [2],32.41 mg
same,Activity,Oryza sativa [3],6.17 mg
same,Activity,Oryza sativa [4],6.67 mg
same,Activity,Oryza sativa [5],3.73 mg
same,Activity,Oryza sativa [6],4.27 mg
same,Activity,Oryza sativa [7],2.02 mg
same,Activity,Oryza sativa [8],2.48 mg
same,Activity,Oryza sativa [9],3.21 mg
same,Activity,Oryza sativa [10],3.73 mg
same,Activity,Oryza sativa [11],15.11 mg
same,Activity,Oryza sativa [12],17.78 mg
same,Activity,Oryza sativa [13],18.89 mg
same,Activity,Oryza sativa [14],21.11 mg
same,Activity,Oryza sativa [15],9.67 mg
same,Activity,Oryza sativa [16],8.8 mg
same,Activity,Oryza sativa [17],2.4 mg
same,Activity,Oryza sativa [18],2.68 mg
same,Activity,Oryza sativa [19],17.67 mg
same,Activity,Oryza sativa [20],18 mg
same,Activity,Oryza sativa [21],8.08 mg
same,Activity,Oryza sativa [22],8 mg
same,Activity,Oryza sativa [23],12.72 mg
same,Activity,Oryza sativa [24],11.85 mg
same,Activity,Oryza sativa [25],40.45 mg
same,Activity,Oryza sativa [26],37 mg
same,Activity,Oryza sativa [27],40.98 mg
same,Activity,Oryza sativa [28],39.91 mg
same,Activity,Oryza sativa [29],5.56 mg
same,Activity,Oryza sativa [30],5.56 mg
same,Activity,Oryza sativa [31],6.06 mg
same,Activity,Oryza sativa [32],6.67 mg
same,Activity,Oryza sativa [33],14.75 mg
same,Activity,Oryza sativa [34],14.08 mg
same,Activity,Oryza sativa [35],7.28 mg
same,Activity,Oryza sativa [36],6.63 mg
same,Activity,Oryza sativa [37],8.8 mg
same,Activity,Oryza sativa [38],8.81 mg
same,Activity,Oryza sativa [39],34.55 mg
same,Activity,Oryza sativa [40],30.27 mg
